In PubChem BioAssay (NCI):
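48-hour exposure; five concentrations; linearly interpolated endpoints. GI50: concentration for 50% inhibition of growth. Definition used: TGI = concentration required for complete inhibition of growth.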 Peptide text beside a SMILES is read from it. * marks the point of attachment. X26 = Clc1c(Cl)c(Cl)c(O*)c(Cl)c1Cl; Boc = CC(C)(C)OC(=O)*; OBn = c1ccc(CO*)cc1; Bn = c1ccc(C*)cc1

How the values were obtained:
Experiment in all cases: DTP human tumour cell line panel, 48 h
SNB-19 CNS = test system: SNB-19 CNS
T-47D breast = test system: T-47D breast
SF-295 CNS = test system: SF-295 CNS
CCRF-CEM leukemia = test system: CCRF-CEM leukemia
NCI-H226 lung = test system: NCI-H226 lung
SK-MEL-5 melanoma = test system: SK-MEL-5 melanoma
COLO 205 colon = test system: COLO 205 colon
NCI-H460 lung = test system: NCI-H460 lung
SF-539 CNS = test system: SF-539 CNS
OVCAR-4 ovarian = test system: OVCAR-4 ovarian

| Structure (SMILES) | TGI (SNB-19 CNS) [µM] | TGI (T-47D breast) [µM] | TGI (SF-295 CNS) [µM] | TGI (CCRF-CEM leukemia) [µM] | TGI (NCI-H226 lung) [µM] | TGI (SK-MEL-5 melanoma) [µM] | TGI (COLO 205 colon) [µM] | TGI (NCI-H460 lung) [µM] | TGI (SF-539 CNS) [µM] | TGI (OVCAR-4 ovarian) [µM] | GI50 (SNB-19 CNS) [µM] | GI50 (SF-295 CNS) [µM] | GI50 (CCRF-CEM leukemia) [µM] | GI50 (OVCAR-4 ovarian) [µM] | GI50 (NCI-H226 lung) [µM] | GI50 (SK-MEL-5 melanoma) [µM] | GI50 (COLO 205 colon) [µM] | GI50 (NCI-H460 lung) [µM] |
| --- | --- | --- | --- | --- | --- | --- | --- | --- | --- | --- | --- | --- | --- | --- | --- | --- | --- | --- |
| Clc1ccc(OCc2nnc(COc3ccc(OCc4nnc(COc5ccc(Cl)cc5Cl)o4)c(Cl)c3)o2)c(Cl)c1 | > 100 | > 100 | > 100 | 38.5 | > 100 | > 100 | 74.9 | > 100 |  |  |  |  |  |  |  |  |  |  |
| COc1ccc(C2=C(Cl)C(=O)O/C2=C\c2ccc(OC)c(Br)c2)cc1Cl | 80.6 | > 100 | 35.1 | 79.2 |  | > 100 | > 100 | > 100 | 30.6 | > 100 |  |  |  |  |  |  |  |  |
| O=C1/C(=C/c2ccc(Cl)cc2)CCCc2ccc(F)cc21 | 80.2 |  | > 100 | 61 | 41.8 | 31.3 | 56.3 | 54 |  | 51.2 | 27.6 | 31.4 | 11.5 | 17.5 | 16.8 | 17.4 | 18.7 | 20.1 |
| O=C1N/N=C\c2ccc(cc2)OCc2cccc(n2)COc2ccc(cc2)/C=N\NC1=O | > 25 |  | > 25 | > 25 | > 25 |  | > 25 | > 25 | > 25 | > 25 |  |  |  |  |  |  |  |  |
| N#Cc1nc(C2CCC(=O)O2)oc1N (stereo not drawn) | > 100 |  | > 100 | > 100 | > 100 | > 100 | > 100 | > 100 | > 100 |  |  |  |  |  |  |  |  |  |
| CC(C)CC(NC(=O)C(CCC(=O)OCc1ccccc1)NC(=O)OC(C)(C)C)C(=O)NC(COCc1ccccc1)C(=O)NC(Cc1ccccc1)C(=O)Oc1c(Cl)c(Cl)c(Cl)c(Cl)c1Cl (stereo not drawn) (Boc-E(OBn)LS(Bn)F-X26; configuration not given here) | 83 |  | 68.1 | 74.7 |  | 40.9 | 58.5 | 59.8 |  | > 100 |  |  |  |  |  |  |  |  |
| Cc1ccc(C(=O)Cc2nc3c([nH]c2=O)c(C)nn3-c2ccccc2)c(C)c1 | > 10 | > 10 | > 10 | > 10 |  | > 10 | > 10 |  | > 10 | 5.19 |  |  |  |  |  |  |  |  |
| CC(C)=CCC12Cc3ccc(O)cc3C(C(C)CN1)C2C (stereo not drawn) | > 100 | > 100 | > 100 | > 100 | > 100 |  | > 100 | > 100 | > 100 | > 100 |  |  |  |  |  |  |  |  |
| CC(C)(C)c1cc(/C=C2/NC(=O)NC2=O)cc(C(C)(C)C)c1O |  | 11.8 | 29.1 | 32.8 | 33 | 27 | 28.5 | 29.1 | 31.6 | 26 |  |  |  |  |  |  |  |  |
| CCCCCCCCCCCCNC(=O)CCC(NC(=O)c1ccc(N(C)Cc2cnc3nc(N)nc(N)c3n2)cc1)C(=O)NCCCCCCCCCCCC (stereo not drawn) | 72.1 | 61.5 | > 100 | 66.7 | > 100 | > 100 | > 100 |  | > 100 | > 100 |  |  |  |  |  |  |  |  |
| COc1ccc(OC)c(NC(=O)C(=O)C(C(=O)c2ccccc2F)C2OC(=O)c3ccccc32)c1 (stereo not drawn) | > 100 |  | > 100 | 91.1 | 54.5 | > 100 | > 100 | > 100 | 82.2 | > 100 |  |  |  |  |  |  |  |  |
| O=P1(C(O)/C=C/c2ccccc2)N(Cc2ccccc2)[C@@H]2CCCC[C@H]2N1Cc1ccccc1 (stereo partly drawn) | 20.6 | 35.7 | 26.8 | > 100 | 17.2 | 16.4 | 6.26 | 14.7 |  | 26.5 |  |  |  |  |  |  |  |  |
| O=P(OCc1ccccc1)(OCc1ccccc1)C(O)/C=C/c1ccccc1 (stereo not drawn) | 71.3 | 88.3 | 49.4 |  | 78.3 | 34.6 | 44.9 |  |  | 56.1 |  |  |  |  |  |  |  |  |
| O=c1[nH]c(=O)n(C2CC(O)C(CO)O2)cc1OC/C=C/Cc1ccccc1 (stereo not drawn) | > 100 | > 100 | > 100 | > 100 | > 100 | > 100 | > 100 | > 100 |  | > 100 |  |  |  |  |  |  |  |  |
| Cc1cnc2[nH]c(-c3cccc(F)c3)cc(=O)c2c1 |  | > 100 |  |  | 4.43 |  | 0.0582 |  | 0.263 | > 100 |  |  |  |  |  |  |  |  |
| c1c(N2CCOCC2)ssc1=[N+]1CCOCC1 | > 100 |  | > 100 | > 100 | > 100 | > 100 |  | > 100 | > 100 | > 100 |  |  |  |  |  |  |  |  |
| CC(=O)OC1CC2(O)C(CCC3(C)C(c4ccc(=O)oc4)CCC32O)C2(C)C1=CC(O)C1OC12 (stereo not drawn) | 0.461 |  | 0.261 | 0.487 | 0.643 | 0.0435 | 0.354 | 0.0466 | 0.116 | 0.121 |  |  |  |  |  |  |  |  |
| COc1cc2[nH]c(=O)c3cc(-c4ccccc4)cc4c(Cl)nc(c1OC)c2c43 | > 82.8 | > 100 | > 100 | > 67 | > 100 | 28 | 38.5 | > 82.9 |  | > 64.4 |  |  |  |  |  |  |  |  |
| O=C1/C(=C/c2ccncc2)C(n2cccc2)c2c(Br)sc(Br)c21 (stereo not drawn) | 30.6 | 16.4 | 26.1 | 4.99 |  | 27.6 | 28.6 | 18.1 | 17.1 |  |  |  |  |  |  |  |  |  |
| CCOc1snc(C(Cl)(Cl)Cl)c1Cl | 74.9 |  | 74.7 | 54.5 | 32.5 | 21.1 | 48.4 | > 100 | > 100 | > 100 |  |  |  |  |  |  |  |  |
| C[C@H](c1ccccc1)N1C(=O)[C@@H](OCc2ccccc2)[C@H]1[C@H](COC(=O)COCc1ccccc1)OCc1ccccc1 | > 100 |  | > 100 | > 100 | 89.4 | > 100 | > 100 |  |  |  |  |  |  |  |  |  |  |  |
| Cc1cn(CCCCCOC(=O)NC(CCCNC(N)=O)C(=O)O)c(=O)[nH]c1=O (stereo not drawn) | > 100 | > 100 | > 100 | > 100 | > 100 |  | > 100 | > 100 | > 100 | > 100 |  |  |  |  |  |  |  |  |
